{"source": "paper PMC11671014", "about": "(PLOS Pathogens, 2024)", "key": {"PfTyrRS [1]": {"molecular_target": "T1, PfTyrRS (Plasmodium falciparum, UniProt Q8IAR7)", "T1 sequence (Q8IAR7 entry or part of it)": "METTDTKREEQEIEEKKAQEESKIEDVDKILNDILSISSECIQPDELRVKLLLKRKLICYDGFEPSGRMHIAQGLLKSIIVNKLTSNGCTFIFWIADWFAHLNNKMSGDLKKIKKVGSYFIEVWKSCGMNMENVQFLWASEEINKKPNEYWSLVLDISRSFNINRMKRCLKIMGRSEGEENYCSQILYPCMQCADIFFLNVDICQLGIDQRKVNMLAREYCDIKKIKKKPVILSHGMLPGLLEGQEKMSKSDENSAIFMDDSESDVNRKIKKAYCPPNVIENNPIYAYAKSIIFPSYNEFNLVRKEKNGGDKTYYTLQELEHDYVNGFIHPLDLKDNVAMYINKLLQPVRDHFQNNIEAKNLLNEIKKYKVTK", "experiment": "ATP consumption by PfTyrRS (Kinase Glo)", "assay_type": "biochemical", "details": "Inhibition of PfTyrRS (Kinase Glo) IC50, PfTyrRS 25 nM, ATP 10 μM, tyrosine 200 μM, cognate tRNA^Tyr 4.8 μM, 37°C 1 h", "procedure": "Consumption of ATP was measured using a luciferase-based assay as per the manufacturer’s instructions (Kinase-Glo Luminescent Kinase Assay, Promega)."}, "PfTyrRS [2]": {"molecular_target": "T1, PfTyrRS", "experiment": "Differential scanning fluorimetry (DSF) of PfTyrRS", "assay_type": "binding", "procedure": "The effect on ML471 and analogues on the thermal stability of TyrRS enzymes was assayed as previously described. […] SYPRO Orange (Sigma-Aldrich; 5,000X concentrate in DMSO) was added to the reaction mixture at a final concentration of 5X. 25 μL of the sample was added into each well of a 96-well qPCR plate (Applied Biosystems). The plate was sealed and analysed using StepOnePlus Real-Time PCR system (Applied Biosystems). The samples were heated from 20°C to 90°C with a 1% continuous gradient. The thermal unfolding curve was plotted as the first derivative curve of the raw fluorescence values. The melting temperature (Tm), defined as the peak of the first derivative curve, was used to assess the thermal stability of protein-ligand complexes."}, "[3]": {"tested_on": "P. falciparum (3D7, ring stage) cultures", "details": "read-out: P. falciparum 72-h IC50 (3D7); 3D7, 72 h exposure; ref [16]; cited from earlier work"}, "HCT116": {"tested_on": "HCT116", "details": "read-out: HCT116 IC50_72h; 72 h; ref [16]; cited from earlier work"}}, "note": "Values joined by “and” are separate entries in the source; they are usually repeats but may differ in a detail not shown here. Equal entries are not always repeated.", "data": [{"smiles": "Nc1ncnc2c1ncn2[C@@H]1O[C@H](COS(N)(=O)=O)[C@@H](O)[C@H]1O", "note": "[AMS, adenosine 5’-monosulfamate, reference compound]", "values": [{"measurement": "IC50", "setting": "PfTyrRS [1]", "result": "51.7 µM and 52 µM"}, {"measurement": "Kd", "setting": "PfTyrRS [2]", "result": 0.0013, "unit": "µM"}, {"measurement": "ΔTm at 50 µM", "setting": "PfTyrRS [2]; 2 h, read-out: PfTyrRS binding (DSF) Delta Tm", "result": "13.6 ± 0.7", "unit": "°C"}, {"measurement": "PfTyrRS Tm", "setting": "PfTyrRS [2]; with sulfamate, ATP, tyrosine and tRNA, apo 49.9 ± 0.6", "result": "63.5 ± 0.7", "unit": "°C"}, {"measurement": "IC50", "setting": "[3]", "result": "0.0018 ± 0.0006", "unit": "µM"}, {"measurement": "IC50", "setting": "HCT116", "result": 0.026, "unit": "µM"}]}]}
